The test system of assay [1] is Enterococcus faecium. Description: Evaluated for the bacterial growth inhibition and the concentration required for 50% inhibition against Streptococcus faecium (MTX resistant). Format: functional, organism-based.
The test system of assay [2] is Enterococcus faecium. Description: Evaluated for the bacterial growth inhibition and the concentration required for 50% inhibition against Streptococcus faecium ATCC 8043 strain. Format: functional, organism-based.

For the compound `Nc1nc(O)c2c(n1)NCC(CCN[C@H]1CC[C@@H](C(=O)NC(CCC(=O)O)C(=O)O)CC1)=N2` (some centres not stated), the Concentration in the assay on Enterococcus faecium [1] is above 2000 ng/mL; in the assay on Enterococcus faecium [2], 30 ng/mL.
As to `Nc1nc(O)c2nc(CCNC3CCC(C(=O)O)CC3)cnc2n1` (configuration not stated), the Concentration with Enterococcus faecium [1] and with Enterococcus faecium [2] was above 2000 ng/mL throughout.
Regarding `Nc1nc(O)c2c(n1)NCC(CCNC1CCC(C(=O)O)CC1)N2` (configuration not stated), the Concentration was above 2000 ng/mL in the assay on Enterococcus faecium [1] and 260 ng/mL in the assay with Enterococcus faecium [2].
For `Nc1nc(O)c2c(n1)NCC(CCNC1CCC(C(=O)O)CC1)=N2` (configuration not stated), in that order: above 2000 ng/mL and 130 ng/mL.
For `Nc1nc(O)c2nc(CCN[C@H]3CC[C@@H](C(=O)NC(CCC(=O)O)C(=O)O)CC3)cnc2n1` (some centres not stated), the Concentration in the assay on Enterococcus faecium [1] was above 2000 ng/mL; in the assay with Enterococcus faecium [2] it was 2000 ng/mL.
For the compound `Nc1nc(O)c2c(n1)NCC(CCN[C@H]1CC[C@@H](C(=O)NC(CCC(=O)O)C(=O)O)CC1)N2` (some centres not stated), the Concentration was above 2000 ng/mL with Enterococcus faecium [1] and 38 ng/mL with Enterococcus faecium [2].
